Results published in US20210238124A1, “ACETYLATED PRODRUGS FOR DELIVERY ACROSS THE BLOOD-BRAIN BARRIER” (THE GENERAL HOSPITAL CORPORATION, priority 2018, published 2021).

Legend:
[1] = rat, in vivo
Procedure: Here, imaging is performed in normal rats and rats pretreated with mannitol.
PET imaging was performed in a rats using a Siemens Focus 220 scanner with Neurological CT scanner. [^18F]-fluoromannitol (1.2 mCi) was injected via tail-vein and imaged in list mode for one hour.
In a separate experiment, a 25% solution of D-mannitol was i.v. injected 30 min prior to tracer injection.

Aβ42 fibers = Aβ42 fibers (Homo sapiens, UniProt P05067); conditions: cited from earlier work
[2] = Biodistribution of 4-[^18F]-fluoroinositol in normal rats; type: in vivo; conditions: FIG. 1
[3] = Biodistribution / brain uptake of ^18F-scyllo-inositols 1 and 2; type: in vivo, rats
Procedure: Brain uptake (% DPG) at 5, 30, and 60 min for the acetylated derivative 1 was 0.8%, 0.9%, and 0.26% (See FIG. 4).
Inositol is transported across the blood-brain barrier by a low capacity, saturable system.

large intestinal cancer = conditions: rats fed prior to carcinogen treatment; cited from earlier work

Aβ42 fibers, sequence (P05067 672-713 limits assumed): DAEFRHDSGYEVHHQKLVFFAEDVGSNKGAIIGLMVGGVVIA

OC[C@@H](O)[C@@H](O)[C@H](O)[C@H](O)C[18F] [[^18F]-Fluoromannitol, 1-deoxy-1-[^18F]-fluoro-D-mannitol]
Brain accumulation (% injected dose) [1]: 0.1 % ID | Brain activity (% injected dose) [1]: 0.08 % ID | brain uptake in the images [1]: high brain uptake | early brain kinetics [1]: very fast flow related brain accumulation and washout

OC1C(O)C(O)C(F)C(O)C1O (centres unmarked) [1-deoxy-1-fluoro-scyllo-inositol]
formation of Aβ42 fibers (Aβ42 fibers): significantly inhibit

OC1C(O)C(O)C(F)C(O)C1O (centres unmarked) [4-[^18F]-fluoroinositol, 4-deoxy-4-fluoro-myo-inositol]
defluorination [2]: minimal | tissue accumulation (biodistribution) [2]: high and fast accumulation in kidney and bladder without any other specific tissue accumulation

OC1C(O)C(O)C([18F])C(O)C1O (centres unmarked) [Compound 2, 1-deoxy-1-[^18F]-fluoro-scyllo-inositol]
Brain uptake (% DPG) ([3]; 5 min): 0.18 % DPG | Brain uptake (% DPG) ([3]; 30 min): 0.30 % DPG | Brain uptake (% DPG) ([3]; 60 min): 0.36 % DPG | site of majority of the activity ([3]; FIG. 5): majority of the activity accumulating in kidneys

CC(=O)OC1C([18F])C(OC(C)=O)C(OC(C)=O)C(OC(C)=O)C1OC(C)=O (centres unmarked) [Compound 1, 1-deoxy-1-[^18F]-fluoro-2,3,4,5,6-penta-O-acetyl-scyllo-inositol]
brain clearance ([3]; rat, in vivo): significant brain clearance

O=P([O-])(O)OC1C(OP(=O)(O)O)C(OP(=O)(O)O)C(OP(=O)(O)O)C(OP(=O)(O)O)C1OP(=O)(O)O.[Na+] (centres unmarked) [sodium inositol hexaphosphate]
decrease in large intestinal cancer compared to the control carcinogen group (large intestinal cancer): 35%

O[C@H]1[C@H](O)[C@@H](O)[C@H](O)[C@@H](O)[C@@H]1O [scyllo-inositol]
formation of Aβ42 fibers (Aβ42 fibers): inhibiting Aβ42 fiber formation
